{"source": "paper PMC9894685", "about": "“Abscisic acid agonists suitable for optimizing plant water use” (Frontiers in Plant Science, 2023)", "key": {"RCAR11-ABI2 [1]": {"system": "T1, RCAR11-ABI2", "T1 construct": "6xHis (N); made in house; host or cells: Escherichia coli BL21", "experiment": "In vitro phosphatase assay, ABI2 with RCAR11", "assay_type": "biochemical, Arabidopsis thaliana", "conditions": "100 nM ABI2, 200 nM RCAR11", "method": "(§1) Expression, purification, and analysis of RCAR and PP2C proteins were performed essentially as described ([Ruschhaupt et al., 2019]). Briefly, the ABA receptors RCAR1, RACR8, and RCAR11 were expressed with an aminoterminal histidine tag using the pSEVA431_LII_6xHIS::RCAR1/RCAR8/RCAR11. ABA coreceptors were expressed as histidine-tagged fusions with the maltose-binding protein using the pSEVA431_LII_6xHIS::MBP::ABI2/HAB1. All constructs were transformed and expressed in Escherichia coli strain BL21 and purified to homogeneity according to supplier’s instruction (GE Healthcare, Chicago, USA). The receptor assay was performed with 100 nM PP2C and a two-fold molar excess of RCAR. Values are means ± SD of three replicates. […] The maximum inhibition was set to 100% in the figures. The phosphatase activity was measured using 4-methylumbelliferyl-phosphate as a substrate ([Meinhard and Grill, 2001]). The increase in fluorescence was recorded over 25 min with excitation and emission wavelengths at 360 and 460 nm, respectively, using a Synergy 2 plate reader (Bio-Tec, Winooski, USA)."}, "RCAR11-ABI2 [2]": {"system": "RCAR11-ABI2", "experiment": "Yeast ABA signal pathway LUC reporter, RCAR11-ABI2", "assay_type": "cell-based, Arabidopsis thaliana", "method": "(§2) The yeast cultivation and the life luciferase assay were performed as described ([Ruschhaupt et al., 2019]). Briefly, the reporter yeast expressing an ABA-dependent luciferase gene (LUC) was transformed with different combinations of ABA signaling components as indicated. Golden gate cloning ([Binder et al., 2014]) was used to construct pYEAST_LII_5‐6_CEN_URA vector with TDH3 promoter and TDH1 terminator (tTDH1), pYEAST_LII_1‐2_CEN_LEU vector with GK1 promoter and tTDH1, and pYEAST_LII_3‐4_CEN_TRP with the GAL1 promoter (pGAL1) and tTDH1 to express RCARs, PP2Cs, and OST1 (SnRK2.6), respectively ([Ruschhaupt et al., 2019]). The expression of ABF2 in yeast relies on a modified pGREG503 vector, in which pGAL1 ([Jansen et al., 2005]) was replaced by the ADH1 promoter.\n(§3) Colonies of freshly transformed cells were inoculated in 0.5 mL supplemented synthetic dextrose (SD) medium and incubated at 30°C in a gyratory shaker (Thermoshake-THO500, Gerhardt, Königswinter, Germany) at 200 rpm for 16-18 h. After overnight growth, the cells were harvested and washed in SD medium followed by inoculation in SD medium containing 2% galactose for induction of SnRK2 kinases under the control of the GAL1 promoter and supplementation with ligands at indicated concentrations, to an OD600 of 0.2 in flat-bottom 96-well plates (CytoOne, Starlab, Hamburg, Germany). Yeast cultures were incubated at 30°C and 200 rpm for 16-18 h before determination of LUC activity and cell density. Light emission of yeasts was detected in a HIDEX plate luminometer (HIDEX, Turku, Finland) after injection of 100 µL freshly prepared luciferin substrate (1 mM D-luciferin, Promega) provided in 100 mM citric acid, pH 3 ([Leskinen et al., 2003]) for 5 s and was corrected for background. The LUC activity was normalized to the cell density (OD600) measured in 96-well flat plates (Sarstedt, Nümbrecht, Germany). LUC activity is given as the ratio of light emission to OD600 in counts per second."}, "RCAR8/PYL5-ABI2": {"system": "T2, RCAR8/PYL5-ABI2", "T2 construct": "expressed in transfected cells; host or cells: yeast (LUC reporter strain)", "experiment": "Yeast ABA signal pathway LUC reporter, RCAR8-ABI2", "assay_type": "cell-based, Arabidopsis thaliana", "method": "as §2, §3"}, "wheat plants": {"system": "wheat plants", "experiment": "Foliar administration and thermal imaging of leaf temperature, wheat", "assay_type": "in vivo, Triticum aestivum", "conditions": "100 μM, 24 h after administration", "method": "(§4) Thermal imaging was carried out as described ([Yang et al., 2016]). An assessment of the efficacy of ABA and CCPs was conducted by using 35-day-old Arabidopsis and 30-day-old wheat plants. Stock solutions (10 mM) of CCPs and ABA dissolved in dimethyl sulfoxide (DMSO) were diluted to the respective ligand concentrations (10, 30, 100 µM) in water containing 0.01% (v/v) Tween 20. Aqueous Tween 20 solutions supplemented with 0.1%, 0.3%, and 1% DMSO served for mock treatments. The solutions were sprayed onto the leaf surface until the run-off of droplets. One day after application (unless otherwise indicated), thermal imaging was conducted using the InfraTec instrument (IR-TCM 384, InfraTec, Dresden, Germany). The leaf temperature of Arabidopsis was determined as the average temperature of all leaves. The leaf temperature of wheat was determined as described ([Yang et al., 2019])."}, "RCAR8-ABI2": {"target": "RCAR8-ABI2", "experiment": "In vitro phosphatase assay, ABI2 with RCAR8", "assay_type": "biochemical, Arabidopsis thaliana", "conditions": "100 nM ABI2, 200 nM RCAR8", "method": "as §1"}, "Arabidopsis plants": {"system": "Arabidopsis plants", "experiment": "Foliar administration and thermal imaging of leaf temperature (transpiration), Arabidopsis", "assay_type": "in vivo, Arabidopsis thaliana", "method": "as §4"}, "ABI1 with RCAR11/PYR1": {"system": "ABI1 with RCAR11/PYR1", "parameters": "method as in Frackenpohl et al., 2018", "conditions": "ref Frackenpohl et al., 2018; cited from earlier work"}, "RCAR1-ABI2": {"target": "T3, RCAR1-ABI2 (Arabidopsis thaliana, UniProt O04719+Q84MC7)", "T3 construct": "6xHis (N); made in house; host or cells: Escherichia coli BL21", "T3 sequence (Q84MC7 1-187)": "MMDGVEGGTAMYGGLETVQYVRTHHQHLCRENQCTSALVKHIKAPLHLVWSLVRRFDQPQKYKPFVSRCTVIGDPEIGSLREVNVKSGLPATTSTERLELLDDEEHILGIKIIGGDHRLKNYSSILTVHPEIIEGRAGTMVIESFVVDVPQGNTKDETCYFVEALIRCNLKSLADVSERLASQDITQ", "T3 sequence (O04719 1-423)": "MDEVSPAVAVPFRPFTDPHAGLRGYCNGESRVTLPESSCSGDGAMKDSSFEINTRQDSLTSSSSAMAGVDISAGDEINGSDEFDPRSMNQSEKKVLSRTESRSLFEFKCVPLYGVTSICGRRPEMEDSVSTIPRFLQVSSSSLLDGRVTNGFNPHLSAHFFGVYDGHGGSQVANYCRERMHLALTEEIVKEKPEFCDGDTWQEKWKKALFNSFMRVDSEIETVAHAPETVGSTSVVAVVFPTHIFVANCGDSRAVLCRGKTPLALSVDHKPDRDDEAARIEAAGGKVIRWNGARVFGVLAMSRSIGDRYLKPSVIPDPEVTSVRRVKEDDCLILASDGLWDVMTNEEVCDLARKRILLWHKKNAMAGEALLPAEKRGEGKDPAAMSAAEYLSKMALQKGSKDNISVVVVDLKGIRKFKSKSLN", "experiment": "In vitro phosphatase assay, ABI2 with RCAR1", "assay_type": "biochemical", "conditions": "for Statistical significance of RCAR1-mediated inhibition of ABI2 phosphatase activity vs ABA: Fig. 3B", "method": "as §1"}, "RCAR1/PYL9-ABI2": {"system": "RCAR1/PYL9-ABI2", "experiment": "Yeast ABA signal pathway LUC reporter, RCAR1-ABI2", "assay_type": "cell-based, Arabidopsis thaliana", "method": "as §2, with “The expression of ABF2 in yeast relies on a modified pGREG503 vector, in which pGAL1 ([Jansen et al., 2005]) was replaced by the ADH1 promoter.” left out\nColonies of freshly transformed cells were inoculated in 0.5 mL supplemented synthetic dextrose (SD) medium and incubated at 30°C in a gyratory shaker (Thermoshake-THO500, Gerhardt, Königswinter, Germany) at 200 rpm for 16-18 h. […] Light emission of yeasts was detected in a HIDEX plate luminometer (HIDEX, Turku, Finland) after injection of 100 µL freshly prepared luciferin substrate (1 mM D-luciferin, Promega) provided in 100 mM citric acid, pH 3 ([Leskinen et al., 2003]) for 5 s and was corrected for background. The LUC activity was normalized to the cell density (OD600) measured in 96-well flat plates (Sarstedt, Nümbrecht, Germany). […]"}}, "data": [{"smiles": "CC(=C/C(=O)O)/C=C/C(O)(C(C)C)C1(C#N)CC1", "note": "(stereo not shown) [CCP1, (2Z,4E)-6-(1-cyanocyclopropyl)-3-methyl-6-hydroxy-7-methylocta-2,4-dienoic acid]", "values": [{"measurement": "Inhibition of ABI2 compared to ABA", "setting": "RCAR11-ABI2 [1]", "result": "comparable to ABA"}, {"measurement": "LUC reporter induction compared to mock-treated cells", "setting": "RCAR11-ABI2 [2]; 30 µM exogenous ligand, 16 h exposure", "result": "approximately eightfold"}, {"measurement": "Activation of the ABA response compared to ABA", "setting": "RCAR11-ABI2 [2]; dose-dependent, 0.1-30 µM", "result": "comparable activity to ABA"}, {"measurement": "Reporter induction relative to ABA", "setting": "RCAR8/PYL5-ABI2; 1 µM exogenous ligand", "result": "approximately half the ABA induction"}, {"measurement": "Higher level required for induction value comparable to 1 µM ABA", "setting": "RCAR8/PYL5-ABI2; yeast, RCAR8-ABI2", "result": "about 10 x"}, {"measurement": "Leaf temperature increase, activity compared to ABA", "setting": "wheat plants", "result": "higher activity than ABA"}, {"measurement": "IC50 relative to ABA (fold higher)", "setting": "RCAR8-ABI2", "result": "around 10 fold"}, {"measurement": "Potency in reducing transpiration compared to ABA", "setting": "Arabidopsis plants; 10 µM", "result": "more potent than 100 µM ABA"}, {"measurement": "Higher leaf temperature", "setting": "Arabidopsis plants; 30 µM, nineteen days after administration", "result": 1.5, "unit": "°C"}, {"measurement": "Duration of persistent response", "setting": "Arabidopsis plants; 10 and 30 µM ligand treatment", "result": 10, "unit": "days"}, {"measurement": "Potency relative to ABA", "setting": "Arabidopsis plants; 10 and 30 µM ligand vs 100 µM ABA", "result": "more than tenfold"}, {"measurement": "Duration of effect relative to ABA", "setting": "Arabidopsis plants; 10 and 30 µM ligand vs ABA", "result": "approximately three times"}, {"measurement": "Efficiency in minimizing transpiration compared to ABA", "setting": "Arabidopsis plants; foliar application", "result": "by an order of magnitude more efficient than ABA"}, {"measurement": "ABA concentration achieving a temperature increase similar to 10 µM of the CCP", "setting": "Arabidopsis plants; one day after application", "result": "about 100 µM"}, {"measurement": "Activity and persistence of minimized transpiration compared to ABA", "setting": "Arabidopsis plants; single application 100 µM, recorded for 19 days", "result": "more active and persistent than ABA"}, {"measurement": "Activity in in vitro inhibition of ABI1 phosphatase activity", "setting": "ABI1 with RCAR11/PYR1", "result": "ABA-like activity"}, {"measurement": "Statistical significance of RCAR1-mediated inhibition of ABI2 phosphatase activity vs ABA", "setting": "RCAR1-ABI2; 0.003 µM", "result": "ns (Otherwise, the difference is regarded as insignificant indicated as “ns”)"}, {"measurement": "Statistical significance of RCAR1-mediated inhibition of ABI2 phosphatase activity vs ABA", "setting": "RCAR1-ABI2; 0.01 µM", "result": "s (P < 0.05 (one-way ANOVA) is considered as a significant difference and expressed as “s”)"}, {"measurement": "Statistical significance of RCAR1-mediated inhibition of ABI2 phosphatase activity vs ABA", "setting": "RCAR1-ABI2; 0.03 µM", "result": "s (P < 0.05 (one-way ANOVA) is considered as a significant difference and expressed as “s”)"}, {"measurement": "Statistical significance of RCAR1-mediated inhibition of ABI2 phosphatase activity vs ABA", "setting": "RCAR1-ABI2; 0.1 µM", "result": "s (P < 0.05 (one-way ANOVA) is considered as a significant difference and expressed as “s”)"}, {"measurement": "IC50 relative to ABA (fold higher)", "setting": "RCAR1-ABI2; 100 nM ABI2 and 200 nM RCAR1", "result": "approximately 100 fold"}, {"measurement": "Statistical significance of RCAR1-mediated inhibition of ABI2 phosphatase activity vs ABA", "setting": "RCAR1-ABI2; 0.3 µM", "result": "s (P < 0.05 (one-way ANOVA) is considered as a significant difference and expressed as “s”)"}, {"measurement": "Statistical significance of RCAR1-mediated inhibition of ABI2 phosphatase activity vs ABA", "setting": "RCAR1-ABI2; 1 µM", "result": "s (P < 0.05 (one-way ANOVA) is considered as a significant difference and expressed as “s”)"}, {"measurement": "Statistical significance of RCAR1-mediated inhibition of ABI2 phosphatase activity vs ABA", "setting": "RCAR1-ABI2; 3 µM", "result": "s (P < 0.05 (one-way ANOVA) is considered as a significant difference and expressed as “s”)"}, {"measurement": "Statistical significance of RCAR1-mediated inhibition of ABI2 phosphatase activity vs ABA", "setting": "RCAR1-ABI2; 10 µM", "result": "s (P < 0.05 (one-way ANOVA) is considered as a significant difference and expressed as “s”)"}, {"measurement": "Statistical significance of RCAR1-mediated inhibition of ABI2 phosphatase activity vs ABA", "setting": "RCAR1-ABI2; 30 µM", "result": "s (P < 0.05 (one-way ANOVA) is considered as a significant difference and expressed as “s”)"}, {"measurement": "Statistical significance of RCAR1-mediated inhibition of ABI2 phosphatase activity vs ABA", "setting": "RCAR1-ABI2; 100 µM", "result": "s (P < 0.05 (one-way ANOVA) is considered as a significant difference and expressed as “s”)"}, {"measurement": "Higher exogenous concentration required for reporter expression comparable to 1 µM ABA", "setting": "RCAR1/PYL9-ABI2", "result": "approximately 30 x"}]}]}
